According to PubChem BioAssay AID248 (DTP/NCI, 2004):
“And” between values parts separate entries of the source, which are not always exact repeats. Equal entries are not always repeated. Inconclusive results and toxic doses are left out.

Test system: L1210 leukemia ip in BDF1 mice, survival T/C
Test: NCI In Vivo Anticancer Drug Screen. Data for tumor model L1210 Leukemia (intraperitoneal) in B6D2F1 (BDF1) mice
Conditions: higher = longer survival
Method in brief: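 Value reflects the ratio of survival in compound-treated mice to survival in vehicle-treated controls, with both groups carrying the same transplanted tumor.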

[1] = endpoint: mean survival time, dose: 100.0 mg/kg/injection, schedule: Q01DX001 (ip), vehicle: acetone

SMILES: O=CNNC(=O)c1cccc([N+](=O)[O-])c1
- T/C (endpoint: mean survival time, dose: 100.0 mg/kg/injection, schedule: Q01DX001 (ip), vehicle: other): 95 % of control
- T/C (endpoint: mean survival time, dose: 100.0 mg/kg/injection, schedule: Q04DX003 (ip), vehicle: other): 97 % of control
- T/C (endpoint: mean survival time, dose: 200.0 mg/kg/injection, schedule: Q01DX001 (ip), vehicle: other): 101 % of control
- T/C (endpoint: mean survival time, dose: 200.0 mg/kg/injection, schedule: Q04DX003 (ip), vehicle: other): 95 % of control
- T/C (endpoint: mean survival time, dose: 400.0 mg/kg/injection, schedule: Q01DX001 (ip), vehicle: other): 92 % of control

SMILES: c1coc(CNCNCc2ccco2)c1
- T/C (endpoint: mean survival time, dose: 155.0 mg/kg/injection, schedule: Q01DX Z (ip), vehicle: methylcellulose (MC)): 94 % of control
- T/C (endpoint: mean survival time, dose: 233.0 mg/kg/injection, schedule: Q01DX Z (ip), vehicle: methylcellulose (MC)): 105 % of control
- T/C (endpoint: mean survival time, dose: 350.0 mg/kg/injection, schedule: Q01DX Z (ip), vehicle: methylcellulose (MC)): 100 % of control

SMILES: CC1=CC(=O)C(C)(C)C=C1
- T/C (endpoint: mean survival time, dose: 100.0 mg/kg/injection, schedule: Q01DX009 (ip), vehicle: saline with Tween-80): 104 % of control
- T/C (endpoint: mean survival time, dose: 100.0 mg/kg/injection, schedule: Q04DX003 (ip), vehicle: saline with Tween-80): 108 % of control
- T/C (endpoint: mean survival time, dose: 200.0 mg/kg/injection, schedule: Q01DX009 (ip), vehicle: saline with Tween-80): 101 % of control
- T/C (endpoint: mean survival time, dose: 200.0 mg/kg/injection, schedule: Q04DX003 (ip), vehicle: saline with Tween-80): 100 % of control
- T/C (endpoint: mean survival time, dose: 400.0 mg/kg/injection, schedule: Q01DX009 (ip), vehicle: saline with Tween-80): 96 % of control

SMILES: CC(C)=CC(=O)c1ccccc1
- T/C [1]: 100 % of control
- T/C (endpoint: mean survival time, dose: 200.0 mg/kg/injection, schedule: Q01DX001 (ip), vehicle: acetone): 94 % of control
- T/C (endpoint: mean survival time, dose: 400.0 mg/kg/injection, schedule: Q01DX001 (ip), vehicle: acetone): 103 % of control

SMILES: CC(=O)Oc1cccc(N(C)C)c1
- T/C (endpoint: mean survival time, dose: 25.0 mg/kg/injection, schedule: Q04DX003 (ip), vehicle: saline): 97 % of control
- T/C (endpoint: mean survival time, dose: 50.0 mg/kg/injection, schedule: Q04DX003 (ip), vehicle: saline): 100 % of control
- T/C [1]: 98 % of control
- T/C (endpoint: mean survival time, dose: 100.0 mg/kg/injection, schedule: Q04DX003 (ip), vehicle: saline): 91 % of control

SMILES: CN(C)c1ccc(/C=C2\C=Cc3ccccc32)c(F)c1
- T/C (endpoint: mean survival time, dose: 100.0 mg/kg/injection, schedule: Q01DX009 (ip), vehicle: Klucel (hydroxypropylcellulose) (HPC)): 98 % of control
- T/C (endpoint: mean survival time, dose: 100.0 mg/kg/injection, schedule: Q04DX003 (ip), vehicle: Klucel (hydroxypropylcellulose) (HPC)): 96 % of control
- T/C (endpoint: mean survival time, dose: 200.0 mg/kg/injection, schedule: Q01DX009 (ip), vehicle: Klucel (hydroxypropylcellulose) (HPC)): 101 % of control
- T/C (endpoint: mean survival time, dose: 200.0 mg/kg/injection, schedule: Q04DX003 (ip), vehicle: Klucel (hydroxypropylcellulose) (HPC)): 93 % of control
- T/C (endpoint: mean survival time, dose: 400.0 mg/kg/injection, schedule: Q01DX009 (ip), vehicle: Klucel (hydroxypropylcellulose) (HPC)): 92 % of control
- T/C (endpoint: mean survival time, dose: 400.0 mg/kg/injection, schedule: Q04DX003 (ip), vehicle: Klucel (hydroxypropylcellulose) (HPC)): 96 % of control

SMILES: C=C(NC(=O)C(=C)NC(=O)c1csc(C2=NC3c4csc(n4)C4NC(=O)c5csc(n5)C(C(C)(O)C(C)O)NC(=O)C5CSC(=N5)/C(=C/C)NC(=O)C(C(C)O)NC(=O)c5csc(n5)C3(CC2)NC(=O)C(C)NC(=O)C(=C)NC(=O)C(=C)NC(=O)C(C(C)C)NC2C=Cc3c(C(C)O)cc(nc3C2O)C(=O)OC4C)n1)C(N)=O (stereo not drawn)
- T/C (endpoint: mean survival time, dose: 3.12 mg/kg/injection, schedule: Q01DX009 (ip), vehicle: saline): 101 % of control
- T/C (endpoint: mean survival time, dose: 6.25 mg/kg/injection, schedule: Q01DX009 (ip), vehicle: saline): 117 % of control

SMILES: NC(=O)N(CCCl)N=O
- T/C (endpoint: mean survival time, dose: 0.06 mg/kg/injection, schedule: Q#A X Z (oral), vehicle: saline): 123 % of control
- T/C (endpoint: mean survival time, dose: 0.12 mg/kg/injection, schedule: Q01DX010 (iv), vehicle: saline): 98 % of control
- T/C (endpoint: mean survival time, dose: 0.13 mg/kg/injection, schedule: Q01DX Z (oral), vehicle: saline): 118 % of control
- T/C (endpoint: mean survival time, dose: 0.19 mg/kg/injection, schedule: Q03DX Z (oral), vehicle: saline): 112 % of control
- T/C (endpoint: mean survival time, dose: 0.2 mg/kg/injection, schedule: Q01DX Z (sc), vehicle: methylcellulose (MC)): 101 % of control
- T/C (endpoint: mean survival time, dose: 0.25 mg/kg/injection, schedule: Q01DX010 (iv), vehicle: saline): 118 % of control
- T/C (endpoint: mean survival time, dose: 0.25 mg/kg/injection, schedule: Q01DX Z (oral), vehicle: saline): 182 % of control
- T/C (endpoint: mean survival time, dose: 0.25 mg/kg/injection, schedule: Q#A X Z (oral), vehicle: saline): 255 % of control
- T/C (endpoint: mean survival time, dose: 0.38 mg/kg/injection, schedule: Q03DX Z (oral), vehicle: saline): 121 % of control
- T/C (endpoint: mean survival time, dose: 0.4 mg/kg/injection, schedule: Q01DX Z (ip), vehicle: carboxymethylcellulose (CMC)): 157 % of control and 201 % of control
- T/C (endpoint: mean survival time, dose: 0.4 mg/kg/injection, schedule: Q01DX Z (ip), vehicle: methylcellulose (MC)): 151 % of control
- T/C (endpoint: mean survival time, dose: 0.4 mg/kg/injection, schedule: Q01DX Z (sc), vehicle: methylcellulose (MC)): 98 % of control and 101 % of control
- T/C (endpoint: mean survival time, dose: 0.44 mg/kg/injection, schedule: Q07DX Z (oral), vehicle: saline): 105 % of control
- T/C (endpoint: mean survival time, dose: 0.5 mg/kg/injection, schedule: Q01DX009 (ip), vehicle: saline): 159 % of control and 163 % of control and 176 % of control
- T/C (endpoint: mean survival time, dose: 0.5 mg/kg/injection, schedule: Q01DX Z (oral), vehicle: saline): 266 % of control
- T/C (endpoint: mean survival time, dose: 0.6 mg/kg/injection, schedule: Q01DX Z (ip), vehicle: carboxymethylcellulose (CMC)): 170 % of control and 197 % of control
- T/C (endpoint: mean survival time, dose: 0.6 mg/kg/injection, schedule: Q01DX Z (ip), vehicle: methylcellulose (MC)): 166 % of control and 171 % of control
- T/C (endpoint: mean survival time, dose: 0.6 mg/kg/injection, schedule: Q01DX Z (sc), vehicle: methylcellulose (MC)): 98 % of control and 101 % of control
- T/C (endpoint: mean survival time, dose: 0.88 mg/kg/injection, schedule: Q07DX Z (oral), vehicle: saline): 124 % of control
- T/C (endpoint: mean survival time, dose: 0.9 mg/kg/injection, schedule: Q01DX Z (ip), vehicle: carboxymethylcellulose (CMC)): 205 % of control and 257 % of control
- T/C (endpoint: mean survival time, dose: 0.9 mg/kg/injection, schedule: Q01DX Z (ip), vehicle: methylcellulose (MC)): 181 % of control and 250 % of control
- T/C (endpoint: mean survival time, dose: 0.9 mg/kg/injection, schedule: Q01DX Z (oral), vehicle: carboxymethylcellulose (CMC)): 117 % of control
- T/C (endpoint: mean survival time, dose: 0.9 mg/kg/injection, schedule: Q01DX Z (sc), vehicle: methylcellulose (MC)): 98 % of control and 101 % of control
- T/C (endpoint: mean survival time, dose: 1.0 mg/kg/injection, schedule: Q01DX009 (ip), vehicle: saline): 202 % of control and 222 % of control and 253 % of control
- T/C (endpoint: mean survival time, dose: 1.0 mg/kg/injection, schedule: Q01DX010 (iv), vehicle: saline): 215 % of control
- T/C (endpoint: mean survival time, dose: 1.35 mg/kg/injection, schedule: Q01DX Z (ip), vehicle: carboxymethylcellulose (CMC)): 176 % of control and 227 % of control
- T/C (endpoint: mean survival time, dose: 1.5 mg/kg/injection, schedule: Q03DX Z (oral), vehicle: saline): 234 % of control
- T/C (endpoint: mean survival time, dose: 1.6 mg/kg/injection, schedule: Q01DX Z (oral), vehicle: methylcellulose (MC)): 167 % of control
- T/C (endpoint: mean survival time, dose: 1.75 mg/kg/injection, schedule: Q07DX Z (oral), vehicle: saline): 178 % of control
- T/C (endpoint: mean survival time, dose: 1.8 mg/kg/injection, schedule: Q01DX Z (oral), vehicle: carboxymethylcellulose (CMC)): 102 % of control and 117 % of control
- T/C (endpoint: mean survival time, dose: 2.0 mg/kg/injection, schedule: Q01DX009 (ip), vehicle: saline): 219 % of control and 317 % of control and 319 % of control
- T/C (endpoint: mean survival time, dose: 2.0 mg/kg/injection, schedule: Q01DX010 (iv), vehicle: saline): 123 % of control
- T/C (endpoint: mean survival time, dose: 3.5 mg/kg/injection, schedule: Q01DX Z (oral), vehicle: carboxymethylcellulose (CMC)): 114 % of control
- T/C (endpoint: mean survival time, dose: 3.5 mg/kg/injection, schedule: Q07DX Z (oral), vehicle: saline): 266 % of control
- T/C (endpoint: mean survival time, dose: 3.6 mg/kg/injection, schedule: Q01DX001 (ip), vehicle: saline): 239 % of control and 271 % of control and 91 % of control
- T/C (endpoint: mean survival time, dose: 4.0 mg/kg/injection, schedule: Q01DX009 (ip), vehicle: saline): 111 % of control and 113 % of control
- T/C (endpoint: mean survival time, dose: 7.0 mg/kg/injection, schedule: Q01DX Z (oral), vehicle: carboxymethylcellulose (CMC)): 194 % of control
- T/C (endpoint: mean survival time, dose: 7.2 mg/kg/injection, schedule: Q01DX001 (ip), vehicle: saline): 265 % of control and 303 % of control
- T/C (endpoint: mean survival time, dose: 14.0 mg/kg/injection, schedule: Q01DX Z (oral), vehicle: carboxymethylcellulose (CMC)): 111 % of control
- T/C (endpoint: mean survival time, dose: 25.0 micrograms/kg/injection, schedule: Q01DX Z (oral), vehicle: steriod suspending solution): 101 % of control
- T/C (endpoint: mean survival time, dose: 50.0 micrograms/kg/injection, schedule: Q01DX Z (oral), vehicle: steriod suspending solution): 104 % of control
- T/C (endpoint: mean survival time, dose: 100.0 micrograms/kg/injection, schedule: Q01DX Z (oral), vehicle: steriod suspending solution): 115 % of control
- T/C (endpoint: mean survival time, dose: 110.0 micrograms/kg/injection, schedule: Q01DX Z (sc), vehicle: steriod suspending solution): 102 % of control
- T/C (endpoint: mean survival time, dose: 200.0 micrograms/kg/injection, schedule: Q01DX Z (oral), vehicle: steriod suspending solution): 165 % of control
- T/C (endpoint: mean survival time, dose: 220.0 micrograms/kg/injection, schedule: Q01DX Z (sc), vehicle: steriod suspending solution): 105 % of control
- T/C (endpoint: mean survival time, dose: 450.0 micrograms/kg/injection, schedule: Q01DX Z (sc), vehicle: steriod suspending solution): 124 % of control
- T/C (endpoint: median survival time, dose: 0.5 mg/kg/injection, schedule: Q01DX009 (ip), vehicle: saline): 162 % of control
- T/C (endpoint: median survival time, dose: 1.0 mg/kg/injection, schedule: Q01DX009 (ip), vehicle: saline): 206 % of control
- T/C (endpoint: median survival time, dose: 2.0 mg/kg/injection, schedule: Q01DX009 (ip), vehicle: saline): 181 % of control
- T/C (endpoint: median survival time, dose: 4.0 mg/kg/injection, schedule: Q01DX009 (ip), vehicle: saline): 112 % of control
